This note sets out measurements from ChEMBL document CHEMBL1132638, “New (sulfonyloxy)piperazinyldibenzazepines as potential atypical antipsychotics: chemistry and pharmacological evaluation” (J Med Chem, 1999).

Broadly, the IC50 is the concentration at which inhibition is half-maximal. A word on the logP: it is a log measure of how a compound divides between an organic and an aqueous phase. Read a low logP as lower lipophilicity. What is called ED50 is the dose at which the effect has come halfway, by size or by number of responders.

In data set [1] the target is D(2) dopamine receptor (Homo sapiens, UniProt P14416). Kind of data set: Compound was tested in vitro for its binding affinity towards human Dopamine receptor D2.
Data set [2] has as its target 5-hydroxytryptamine receptor 2A (Rattus norvegicus, UniProt P14842). Description: biochemical.
Description: Binding affinity towards 5-hydroxytryptamine 2A receptor from rat frontal cortex using [3H]ketanserin as radioligand
Data set [3] has as its target T1, D(4) dopamine receptor (Homo sapiens, UniProt P21917).
T1 sequence (P21917 whole entry): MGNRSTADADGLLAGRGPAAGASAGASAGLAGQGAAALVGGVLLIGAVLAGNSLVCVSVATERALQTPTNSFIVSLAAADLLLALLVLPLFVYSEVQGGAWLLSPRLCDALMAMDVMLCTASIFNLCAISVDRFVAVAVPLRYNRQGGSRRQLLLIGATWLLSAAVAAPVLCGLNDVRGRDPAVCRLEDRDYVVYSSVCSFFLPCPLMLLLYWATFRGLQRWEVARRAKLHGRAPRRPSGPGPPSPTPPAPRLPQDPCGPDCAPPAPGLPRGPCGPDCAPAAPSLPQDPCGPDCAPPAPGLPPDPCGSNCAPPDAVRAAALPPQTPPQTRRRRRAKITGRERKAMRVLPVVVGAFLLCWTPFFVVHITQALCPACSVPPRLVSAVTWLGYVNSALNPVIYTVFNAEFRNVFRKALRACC
Kind of data set: Compound was tested in vitro for its binding affinity towards human Dopamine receptor D4.2.

Data set [4] in a line: Partition coefficient (logP). The format is physicochemical. The following applies: octanol/water.
For data set [5], the target named is D(3) dopamine receptor (Homo sapiens, UniProt P35462).
Description: Binding affinity towards human Dopamine receptor D3
Data set [6] has as its target T2, 5-hydroxytryptamine receptor 2C (Rattus norvegicus, UniProt P08909).
T2 sequence (P08909 whole entry): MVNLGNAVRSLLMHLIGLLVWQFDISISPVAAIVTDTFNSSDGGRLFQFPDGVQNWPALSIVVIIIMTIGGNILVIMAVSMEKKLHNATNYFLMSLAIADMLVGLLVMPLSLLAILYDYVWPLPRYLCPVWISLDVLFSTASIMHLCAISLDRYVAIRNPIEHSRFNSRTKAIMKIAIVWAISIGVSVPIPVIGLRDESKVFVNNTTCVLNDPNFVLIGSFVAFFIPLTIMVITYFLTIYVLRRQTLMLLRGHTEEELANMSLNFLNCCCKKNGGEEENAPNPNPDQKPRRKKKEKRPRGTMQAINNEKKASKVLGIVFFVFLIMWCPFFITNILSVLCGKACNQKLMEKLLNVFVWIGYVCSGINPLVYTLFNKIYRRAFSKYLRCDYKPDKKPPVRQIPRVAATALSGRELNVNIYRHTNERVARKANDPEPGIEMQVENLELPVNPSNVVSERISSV
Description: Binding affinity towards 5-HT2C receptor from rat using [3H]mesulergine as radioligand

The subject of data set [7] is Mus musculus. Description: Inhibition of apomorphine induced climbing affects in mice by administering the compound perorally in mice. The following applies: Mus musculus, po; read-out: ED50. The class given is functional.
The nature of data set [8]: Therapeutic ratio by Peroral dose of administration (quotient ED50 catalepsy/ED50 climbing). The following applies: in vivo, po; read-out: Therapeutic ratio. The format is ADME, organism-based.
Data set [9] has as its target T3, Adrenergic receptor alpha-1 (Rattus norvegicus, UniProt P15823+P23944+P43140).
T3 sequence (P15823 whole entry): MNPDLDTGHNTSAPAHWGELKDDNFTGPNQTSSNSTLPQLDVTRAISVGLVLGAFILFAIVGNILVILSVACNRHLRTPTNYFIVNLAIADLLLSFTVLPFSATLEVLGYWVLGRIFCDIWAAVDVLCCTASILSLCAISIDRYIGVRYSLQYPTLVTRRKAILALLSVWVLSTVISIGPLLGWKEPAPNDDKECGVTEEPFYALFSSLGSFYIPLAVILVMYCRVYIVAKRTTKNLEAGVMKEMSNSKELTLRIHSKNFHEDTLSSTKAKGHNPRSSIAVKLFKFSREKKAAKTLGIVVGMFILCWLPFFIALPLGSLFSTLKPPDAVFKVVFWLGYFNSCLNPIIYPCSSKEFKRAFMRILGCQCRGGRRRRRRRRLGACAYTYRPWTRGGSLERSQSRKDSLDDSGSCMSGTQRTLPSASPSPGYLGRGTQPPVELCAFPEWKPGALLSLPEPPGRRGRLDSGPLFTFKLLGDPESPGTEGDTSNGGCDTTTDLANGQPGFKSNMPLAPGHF
T3 sequence (P23944 whole entry): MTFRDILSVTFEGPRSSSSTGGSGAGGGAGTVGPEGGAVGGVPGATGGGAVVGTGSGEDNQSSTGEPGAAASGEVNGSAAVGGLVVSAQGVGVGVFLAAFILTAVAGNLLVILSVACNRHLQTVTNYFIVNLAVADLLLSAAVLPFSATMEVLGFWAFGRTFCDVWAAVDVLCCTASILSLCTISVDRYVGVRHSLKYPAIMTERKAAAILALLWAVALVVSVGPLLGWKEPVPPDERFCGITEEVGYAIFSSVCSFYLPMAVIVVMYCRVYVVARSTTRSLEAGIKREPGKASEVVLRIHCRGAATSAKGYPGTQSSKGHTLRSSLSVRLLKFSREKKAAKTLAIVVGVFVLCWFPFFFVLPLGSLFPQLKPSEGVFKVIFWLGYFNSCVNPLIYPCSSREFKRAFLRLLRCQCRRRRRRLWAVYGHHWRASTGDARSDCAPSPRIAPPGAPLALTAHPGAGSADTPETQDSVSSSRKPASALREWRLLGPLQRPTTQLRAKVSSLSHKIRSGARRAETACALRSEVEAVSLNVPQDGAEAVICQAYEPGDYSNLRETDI
T3 sequence (P43140 whole entry): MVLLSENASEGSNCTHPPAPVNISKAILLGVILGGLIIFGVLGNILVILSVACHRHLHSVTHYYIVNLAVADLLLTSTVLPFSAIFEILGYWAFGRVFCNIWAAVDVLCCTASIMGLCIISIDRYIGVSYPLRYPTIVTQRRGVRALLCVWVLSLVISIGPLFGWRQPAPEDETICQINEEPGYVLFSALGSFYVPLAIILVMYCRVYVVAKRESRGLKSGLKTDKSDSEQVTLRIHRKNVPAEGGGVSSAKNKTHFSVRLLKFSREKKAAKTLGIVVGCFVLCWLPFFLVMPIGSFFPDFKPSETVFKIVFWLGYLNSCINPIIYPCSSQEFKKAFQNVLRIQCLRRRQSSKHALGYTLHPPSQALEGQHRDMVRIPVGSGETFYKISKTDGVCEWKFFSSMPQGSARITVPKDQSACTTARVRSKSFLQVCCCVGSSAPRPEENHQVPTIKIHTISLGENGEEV
Kind of data set: Binding affinity towards alpha-1 adrenergic receptor from rat brain membranes using [3H]prazosin as radioligand.

For data set [10], the target named is T4, Muscarinic acetylcholine receptor M1 (Homo sapiens, UniProt P11229).
T4 sequence (P11229 whole entry): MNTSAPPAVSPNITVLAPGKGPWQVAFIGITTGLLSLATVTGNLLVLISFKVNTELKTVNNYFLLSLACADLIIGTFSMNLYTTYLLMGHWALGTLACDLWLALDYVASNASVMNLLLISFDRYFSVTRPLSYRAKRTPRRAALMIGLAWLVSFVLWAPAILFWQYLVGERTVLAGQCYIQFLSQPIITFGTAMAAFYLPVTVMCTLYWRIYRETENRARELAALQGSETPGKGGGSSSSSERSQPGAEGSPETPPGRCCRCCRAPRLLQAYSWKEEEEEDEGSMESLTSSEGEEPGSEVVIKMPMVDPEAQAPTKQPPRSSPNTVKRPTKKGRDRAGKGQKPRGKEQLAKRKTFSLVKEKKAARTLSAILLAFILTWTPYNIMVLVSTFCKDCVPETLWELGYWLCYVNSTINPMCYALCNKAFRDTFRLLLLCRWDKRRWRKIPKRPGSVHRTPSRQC
Description: Inhibition of binding of 1.0 nM [3H]pirenzepine to cloned human Muscarinic acetylcholine receptor M1 expressed in membranes from CHO-K1 cells. The format is cell-based.

Data set [11] deals with Rattus norvegicus. Kind of data set: Catalepsy percent score in rat by peroral administration of 100 mg/Kg of compound.
Data set [12] concerns the target Histamine H1 receptor (Rattus norvegicus, UniProt P31390). Description: Binding affinity towards histamine H1 receptor from rat brain membranes using [3H]mepyramine as radioligand.
A short description of data set [13]: Delta ED50 value by peroral administration (ED50 catalepsy-ED50 Climbing). The class given is functional.
In data set [14] the target is D(1A) dopamine receptor (Rattus norvegicus, UniProt P18901). Description: biochemical.
Description: Binding affinity towards D1 CNS receptor of rat corpus striatum using [3H]SCH-23390 as radioligand
Data set [15] concerns Mus musculus. Description: Inhibition of apomorphine induced climbing affects in mice by administering the compound subcutaneously in mice. The class given is functional. As to conditions: sc.
The species entered for data set [16] is Rattus norvegicus. Kind of data set: Ex vivo accumulation of L-DOPA was measured in striatum of rats.
In data set [17] the test system is Rattus norvegicus. Kind of data set: Compound is measured for inhibition of catalepsy in rat by peroral administration of compound. The format is functional. As to conditions: po.
Data set [18] addresses T1, D(4) dopamine receptor. Kind of data set: Binding affinity towards human D4.2 receptor.

5-hydroxytryptamine receptor 2A, sequence (P14842 whole entry): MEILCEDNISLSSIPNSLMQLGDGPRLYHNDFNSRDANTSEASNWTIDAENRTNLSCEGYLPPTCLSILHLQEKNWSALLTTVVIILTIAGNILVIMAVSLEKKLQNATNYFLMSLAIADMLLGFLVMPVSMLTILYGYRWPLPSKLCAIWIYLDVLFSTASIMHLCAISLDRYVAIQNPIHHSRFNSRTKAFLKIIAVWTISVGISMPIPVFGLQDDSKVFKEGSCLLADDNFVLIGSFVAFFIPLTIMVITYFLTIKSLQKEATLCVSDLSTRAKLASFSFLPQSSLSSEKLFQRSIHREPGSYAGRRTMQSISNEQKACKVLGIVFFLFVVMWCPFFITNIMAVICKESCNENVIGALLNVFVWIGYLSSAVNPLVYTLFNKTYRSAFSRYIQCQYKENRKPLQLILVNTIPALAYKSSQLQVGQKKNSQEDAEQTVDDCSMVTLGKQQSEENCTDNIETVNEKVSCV
D(3) dopamine receptor, sequence (P35462 whole entry): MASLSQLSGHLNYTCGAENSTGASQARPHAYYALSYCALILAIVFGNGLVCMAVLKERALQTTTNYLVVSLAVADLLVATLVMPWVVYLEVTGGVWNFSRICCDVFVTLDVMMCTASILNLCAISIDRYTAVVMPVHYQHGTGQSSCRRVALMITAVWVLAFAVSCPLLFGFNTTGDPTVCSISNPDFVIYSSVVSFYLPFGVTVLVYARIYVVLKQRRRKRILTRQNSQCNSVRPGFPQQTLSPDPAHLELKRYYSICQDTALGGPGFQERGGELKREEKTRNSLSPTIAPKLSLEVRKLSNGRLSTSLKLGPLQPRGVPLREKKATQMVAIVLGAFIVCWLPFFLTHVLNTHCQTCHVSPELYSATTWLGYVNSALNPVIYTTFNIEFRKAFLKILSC
D(2) dopamine receptor, sequence (P14416 whole entry): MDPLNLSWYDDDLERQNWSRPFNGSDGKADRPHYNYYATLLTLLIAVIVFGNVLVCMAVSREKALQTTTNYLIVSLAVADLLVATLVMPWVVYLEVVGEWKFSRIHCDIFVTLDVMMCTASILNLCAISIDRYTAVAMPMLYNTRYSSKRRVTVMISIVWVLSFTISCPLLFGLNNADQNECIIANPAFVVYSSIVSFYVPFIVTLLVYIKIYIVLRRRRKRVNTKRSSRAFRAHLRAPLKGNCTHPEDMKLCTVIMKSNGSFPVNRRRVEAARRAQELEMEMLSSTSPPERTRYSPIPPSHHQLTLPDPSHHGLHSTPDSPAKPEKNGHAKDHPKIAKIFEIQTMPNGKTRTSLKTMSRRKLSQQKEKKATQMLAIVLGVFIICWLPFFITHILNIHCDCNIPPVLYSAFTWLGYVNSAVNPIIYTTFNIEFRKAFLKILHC
D(1A) dopamine receptor, sequence (P18901 whole entry): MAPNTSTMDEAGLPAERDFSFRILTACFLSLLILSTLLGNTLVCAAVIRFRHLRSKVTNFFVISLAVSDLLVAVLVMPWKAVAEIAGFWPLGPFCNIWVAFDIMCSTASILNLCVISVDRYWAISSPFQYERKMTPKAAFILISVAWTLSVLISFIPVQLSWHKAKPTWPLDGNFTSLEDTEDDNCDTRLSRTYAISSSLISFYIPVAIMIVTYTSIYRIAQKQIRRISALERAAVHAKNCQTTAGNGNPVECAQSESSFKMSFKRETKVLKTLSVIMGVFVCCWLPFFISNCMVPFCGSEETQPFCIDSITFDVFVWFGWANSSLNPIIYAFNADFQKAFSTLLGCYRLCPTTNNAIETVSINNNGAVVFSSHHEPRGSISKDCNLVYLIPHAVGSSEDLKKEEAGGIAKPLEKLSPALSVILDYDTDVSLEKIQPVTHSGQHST
Histamine H1 receptor, sequence (P31390 whole entry): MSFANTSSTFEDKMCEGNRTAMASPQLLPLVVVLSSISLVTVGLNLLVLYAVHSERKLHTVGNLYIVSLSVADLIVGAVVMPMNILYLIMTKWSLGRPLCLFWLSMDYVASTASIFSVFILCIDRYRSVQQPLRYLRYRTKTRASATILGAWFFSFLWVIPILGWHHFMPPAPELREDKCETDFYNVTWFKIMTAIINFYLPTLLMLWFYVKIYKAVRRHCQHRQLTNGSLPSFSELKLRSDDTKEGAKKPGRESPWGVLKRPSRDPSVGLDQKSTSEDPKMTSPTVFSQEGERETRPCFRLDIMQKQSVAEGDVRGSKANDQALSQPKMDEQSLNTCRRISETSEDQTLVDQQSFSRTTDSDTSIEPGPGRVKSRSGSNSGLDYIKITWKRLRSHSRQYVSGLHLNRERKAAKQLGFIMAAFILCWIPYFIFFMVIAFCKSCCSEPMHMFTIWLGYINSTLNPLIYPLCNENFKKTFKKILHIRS

As for `CN1CCN(C2=Nc3ccccc3Oc3ccc(OS(C)(=O)=O)cc32)CC1`, the IC50 in data set [1] is greater than 1000 nM; in data set [2], 230 nM; in data set [3], greater than 1000 nM; in [5] it was 350 nM. The compound also registered a logP in data set [4] of 1.98.

On to `CN1CCN(C2=Nc3ccccc3Oc3ccc(OS(=O)(=O)C(F)(F)F)cc32)CC1`, for which the IC50 in data set [6] stood at 100 nM; in data set [9], 27 nM; in [10], 490 nM; in [12], 120 nM; in data set [14], 66 nM; in data set [2], 48 nM. In addition, the IC50 in data set [5] is 29 nM; in [18], 150 nM. Besides, the ED50 in data set [7] was 1.3 mg/kg; in [15], 2.2 mg/kg; in [16] it was 0.7 mg/kg; in [17], 28 mg/kg. Moreover, the selectivity ratio in data set [8] turned out to be 21.5. In [11], this compound came in with a Catalepsy of 32%. In [13], the “Delta ED50” value amounted to 26.7 mg/kg. In data set [4], this compound came in with a logP of 3.76.
